# Results from ChEMBL document CHEMBL1144834, “Acremolides A-D, lipodepsipeptides from an Australian marine-derived fungus, Acremonium sp” (2008).
# The source made the active and inactive calls. The rule behind the calls is not given here.
# Assays:
# [1] = tested on: NS1; test: (§1) Cytotoxicity against mouse NS1 cells; type: functional
# [2] = tested on: Bacillus subtilis; test: Antibacterial activity against Bacillus subtilis; type: functional, organism-based
# [3] = tested on: Candida albicans; test: Antifungal activity against Candida albicans; type: functional, organism-based
# [4] = as §1; type: functional
Compound,Activity [1],Activity [2],Activity [3],LD99 [4] [µg/mL]
CC[C@@H](C)[C@H]1NC(=O)C(C)C(O)CC(C(C)CCCCC(C)O)OC(=O)[C@@H]2CCCN2C1=O (stereo not given in full),inactive,inactive,inactive,
C=C1[C@@H](C)[C@H]2[C@H](Cc3c[nH]c4ccccc34)NC(=O)[C@]23C(=O)/C=C/C(=O)[C@H](OC(C)=O)/C(C)=C\[C@@H](C)C/C=C/[C@H]3[C@@H]1O,,,,0.8
C/C=C/c1cccc(O)c1CO,inactive,,,
CC(=O)O[C@H]1C(=O)/C=C/C(=O)[C@@]23C(=O)N[C@@H](Cc4c[nH]c5ccccc45)[C@@H]2C(C)=C(C)[C@@H](O)[C@@H]3/C=C/C[C@H](C)/C=C\1C [19-O-ACETYLCHAETOGLOBOSIN B],,,,1.6
CC(=O)CCCCC(C)C1CC(O)C(C)C(=O)N[C@H](Cc2ccccc2)C(=O)N2CCC[C@H]2C(=O)O1 (stereo not given in full),inactive,inactive,inactive,
CC(O)CCCCC(C)C1CC(O)C(C)C(=O)N[C@H](C(C)C)C(=O)N2CCC[C@H]2C(=O)O1 (stereo not given in full),inactive,inactive,inactive,
CC(O)CCCCC(C)C1CC(O)C(C)C(=O)N[C@H](Cc2ccccc2)C(=O)N2CCC[C@H]2C(=O)O1 (stereo not given in full),inactive,inactive,inactive,
